Assay [1] concerns panel of fifteen human rhinovirus (HRV) serotypes. As to the kind of experiment: plaque reduction assay, panel of fifteen human rhinovirus serotypes (MIC50/MIC80). To be noted: for MIC50: concentration required to inhibit 50% of the tested serotypes, HeLa (Wisconsin) cells, read-out: MIC₅₀ (Rhinovirus); for MIC₈₀ (N) (Rhinovirus): concentration required to inhibit 80% of the tested serotypes, N in parentheses = number of serotypes tested. Type of assay: cell-based. As to the method:
(§1) The MIC values were determined by a standard plaque reduction assay as follows: HeLa (Wisconsin) cells in monolayers were infected at a concentration of virus to give approximately 80 plaques per monolayer in the virus control (no drug present). The compound to be tested was serially diluted and included in the agar-medium overlay and in some cases, during the adsorption period as well. The MIC was determined to be that concentration of compound which reduced the number of plaques by 50% with respect to the untreated virus control.
(§2) In the standard test procedures, the compounds were tested against a panel of fifteen human rhinovirus (HRV) serotypes, namely HRV-2, -1A, -1B, -6, -14, -21, -22, -15, -25, -30, -50, -67, -89, -86 and -41. The MIC value for each rhinovirus serotype was determined, and the efficacy of each compound was determined in terms of MIC₅₀ and MIC₈₀ values, which is the concentration of the compound required to inhibit 50% and 80%, respectively, of the tested serotypes.
The following Table gives the testing results with the compounds of the invention. For some of the compounds, the MIC₅₀ and MIC₈₀ values are based on the testing of fewer than 15 rhinovirus serotypes. In these cases the number of serotypes (N) is indicated in parentheses after the MIC₈₀ figure.
(Plaque reduction counts the foci of infection that form in a cell layer.)

The test system of a further assay is Polio 2. As to the kind of experiment: microbe, parasite or virus in culture. Type of assay: cell-based. To be noted: HeLa, read-out: MIC (Polio 2).
Another assay has as its system HRV-2. As to the kind of experiment: plaque reduction assay, rhinovirus serotype 2. The assay is classed as cell-based, human rhinovirus (HRV). To be noted: 50% plaque reduction, HeLa (Wisconsin) cells, read-out: MIC. The protocol:
as §1, §2
(§3) The following Table compares the MIC values for the compound of Example 10(c) and the methylated derivative of Example 11(c) against 15 rhinovirus serotypes: […]

A further assay has as its system HRV-41. Kind of assay: plaque reduction assay, rhinovirus serotype 41. Type of assay: cell-based, human rhinovirus (HRV). To be noted: Enterovirus, HRV41, 50% plaque reduction, HeLa (Wisconsin) cells, read-out: MIC. The protocol: as §1, §2, §3
In a further assay the test system is HRV-6. As to the kind of experiment: plaque reduction assay, rhinovirus serotype 6. Type of assay: cell-based, human rhinovirus (HRV). The conditions noted are these: Enterovirus, HRV6, 50% plaque reduction, HeLa (Wisconsin) cells, read-out: MIC. The protocol:
as §1, §2, §3

The subject of the next assay is HRV-50. Kind of assay: plaque reduction assay, rhinovirus serotype 50. Type of assay: cell-based, human rhinovirus (HRV). To be noted: Enterovirus, HRV50, 50% plaque reduction, HeLa (Wisconsin) cells, read-out: MIC. The protocol: as §1, §2, §3
The subject of a further assay is HRV-15. As to the kind of experiment: plaque reduction assay, rhinovirus serotype 15. Type of assay: cell-based, human rhinovirus (HRV). To be noted: Enterovirus, HRV15, 50% plaque reduction, HeLa (Wisconsin) cells, read-out: MIC. The protocol:
as §1, §2, §3

The next assay relates to HRV-89. Kind of assay: plaque reduction assay, rhinovirus serotype 89. The assay is classed as cell-based, human rhinovirus (HRV). To be noted: 50% plaque reduction, HeLa (Wisconsin) cells, read-out: MIC. As to the method:
as §1, §2, §3

The test system of another assay is HRV-21. Kind of assay: plaque reduction assay, rhinovirus serotype 21. Type of assay: cell-based, human rhinovirus (HRV). To be noted: Enterovirus, HRV21, 50% plaque reduction, HeLa (Wisconsin) cells, read-out: MIC. As to the method:
as §1, §2, §3

In another assay the test system is HRV-1A. As to the kind of experiment: plaque reduction assay, rhinovirus serotype 1A. To be noted: 50% plaque reduction, HeLa (Wisconsin) cells, read-out: MIC. The assay is classed as cell-based, human rhinovirus (HRV). As to the method:
as §1, §2, §3

The next assay concerns HRV-1B. Kind of assay: plaque reduction assay, rhinovirus serotype 1B. The assay is classed as cell-based, human rhinovirus (HRV). To be noted: 50% plaque reduction, HeLa (Wisconsin) cells, read-out: MIC. The protocol: as §1, §2, §3
The test system of a further assay is HRV-14. Kind of assay: plaque reduction assay, rhinovirus serotype 14. Type of assay: cell-based, human rhinovirus (HRV). To be noted: 50% plaque reduction, HeLa (Wisconsin) cells, read-out: MIC. As to the method: as §1, §2, §3
The next assay has as its system HRV-25. As to the kind of experiment: plaque reduction assay, rhinovirus serotype 25. The assay is classed as cell-based, human rhinovirus (HRV). To be noted: Enterovirus, HRV25, 50% plaque reduction, HeLa (Wisconsin) cells, read-out: MIC. The protocol: as §1, §2, §3
The test system of another assay is HRV-22. Kind of assay: plaque reduction assay, rhinovirus serotype 22. The assay is classed as cell-based, human rhinovirus (HRV). To be noted: Enterovirus, HRV22, 50% plaque reduction, HeLa (Wisconsin) cells, read-out: MIC. As to the method: as §1, §2, §3
Another assay relates to HRV-67. Kind of assay: plaque reduction assay, rhinovirus serotype 67. Type of assay: cell-based, human rhinovirus (HRV). The conditions noted are these: Enterovirus, HRV67, 50% plaque reduction, HeLa (Wisconsin) cells, read-out: MIC. The protocol: as §1, §2, §3
For the next assay, the system named is HRV-86. As to the kind of experiment: plaque reduction assay, rhinovirus serotype 86. The assay is classed as cell-based, human rhinovirus (HRV). The conditions noted are these: Enterovirus, HRV86, 50% plaque reduction, HeLa (Wisconsin) cells, read-out: MIC. The protocol: as §1, §2, §3
Another assay has as its system HRV-30. Kind of assay: plaque reduction assay, rhinovirus serotype 30. Type of assay: cell-based, human rhinovirus (HRV). To be noted: Enterovirus, HRV30, 50% plaque reduction, HeLa (Wisconsin) cells, read-out: MIC. As to the method:
as §1, §2, §3

Results on 14 compounds are retold here after EP0413289B1 (priority 1989, dated 1991).

In brackets after ≈: the same amount, converted by molar mass.

`Cc1cc(CCCCCOc2c(C)cc(-c3nc(C)no3)cc2C)on1` [2(b), 5-{5-[2,6-dimethyl-4-(3-methyl-1,2,4-oxadiazol-5-yl)phenoxy]pentyl}-3-methylisoxazole]: in assay [1], the MIC50 came out at 0.053 µg/mL (≈ 0.149 µM) and the “MIC₈₀ (N) (Rhinovirus)” value was 0.42 (6) micrograms per milliliter.

Regarding `Cc1cc(CCCOc2c(C)cc(-c3nc(C)no3)cc2C)on1` [3(b), 5-{3-[2,6-Dimethyl-4-(3-methyl-1,2,4-oxadiazol-5-yl)-phenoxy]propyl}-3-methylisoxazole], in [1], the MIC50 is 0.026 µg/mL (≈ 0.0794 µM) and the “MIC₈₀ (N) (Rhinovirus)” value was 0.12 (15) micrograms per milliliter.

Turning to `CCc1cc(CCCOc2c(C)cc(-c3nc(C)no3)cc2C)on1` [4(d), 5-{3-[2,6-Dimethyl-4-(3-methyl-1,2,4-oxadiazol-5-yl)-phenoxy]propyl}-3-ethylisoxazole], in [1], the MIC50 is 0.042 µg/mL (≈ 0.123 µM) and the “MIC₈₀ (N) (Rhinovirus)” value is 0.15 (15) micrograms per milliliter.

As to `CCCc1cc(CCCOc2c(C)cc(-c3nc(C)no3)cc2C)on1` [5(e), 5-{3-[2,6-dimethyl-4-(3-methyl-1,2,4-oxadiazol-5-yl)phenoxy]propyl}-3-(n-propyl)isoxazole], in assay [1], the MIC50 stood at 0.036 µg/mL (≈ 0.101 µM) and the “MIC₈₀ (N) (Rhinovirus)” value was 0.06 (7) micrograms per milliliter.

As for `Cc1cc(CCCOc2c(C)cc(-c3nnc(C)o3)cc2C)on1` [12(d), 5-{3-[2,6-Dimethyl-4-(5-methyl-1,3,4-oxadiazol-2-yl)-phenoxy]propyl}-3-methylisoxazole], in assay [1], the MIC50 turned out to be 0.054 µg/mL (≈ 0.165 µM) and the “MIC₈₀ (N) (Rhinovirus)” value is recorded as 0.35 (6) micrograms per milliliter.

As for `Cc1cc(CCCCCOc2ccc(-c3nnco3)cc2)on1` [Example 1, 3-Methyl-5-{5-[4-(1,3,4-oxadiazol-2-yl)phenoxy]pentyl}-isoxazole, reference compound], the EC50 with Polio 2 is 0.05 µg/mL (≈ 0.16 µM). Moreover, in [1], the “MIC₈₀ (N) (Rhinovirus)” value is 2.56 (1) micrograms per milliliter.

For `Cc1cc(CCCCCOc2c(C)cc(-c3noc(C)n3)cc2C)on1` [Example 6, 5-{5-[2,6-dimethyl-4-(5-methyl-1,2,4-oxadiazol-3-yl)phenoxy]pentyl}-3-methylisoxazole], in assay [1], the MIC50 came out at 0.018 µg/mL (≈ 0.0506 µM) and the “MIC₈₀ (N) (Rhinovirus)” value was 0.10 (5) micrograms per milliliter.

On to `Cc1cc(CCCOc2c(C)cc(-c3noc(C)n3)cc2C)on1` [Example 7, 5-{3-[2,6-Dimethyl-4-(5-methyl-1,2,4-oxadiazol-3-yl)phenoxy]propyl}-3-methylisoxasole], for which, in assay [1], the MIC50 worked out at 0.012 µg/mL (≈ 0.0367 µM) and the “MIC₈₀ (N) (Rhinovirus)” value was 0.069 (13) micrograms per milliliter.

As for `CCc1cc(CCCOc2c(C)cc(-c3noc(C)n3)cc2C)on1` [Example 8(c), 5-{3-[2,6-dimethyl-4-(5-methyl-1,2,4-oxadiazol-3-yl)phenoxy]propyl}-3-ethylisoxazole], in [1], the MIC50 is 0.017 µg/mL (≈ 0.0498 µM) and the “MIC₈₀ (N) (Rhinovirus)” value is recorded as 0.05 (6) micrograms per milliliter.

As for `CCCc1cc(CCCOc2c(C)cc(-c3noc(C)n3)cc2C)on1` [Example 9, 5-{3-[2,6-Dimethyl-4-(5-methyl-1,2,4-oxadiazol-3-yl)phenoxy]propyl}-3-propylisoxazole], in [1], the MIC50 is 0.025 µg/mL (≈ 0.0703 µM) and the “MIC₈₀ (N) (Rhinovirus)” value is 0.04 (6) micrograms per milliliter.

Consider `Cc1cc(CCCCCOc2c(Cl)cc(-c3nnco3)cc2Cl)on1` [Example 10(c), 5-{5-[2,6-Dichloro-4-(1,3,4-oxadiazol-2-yl)phenoxy]-pentyl}-3-methylisoxazole, reference compound], for which the EC50 in the assay with HRV-2 came to 0.41 µg/mL (≈ 1.07 µM); in the assay with HRV-41 it was 2.76 µg/mL (≈ 7.22 µM); in the assay with HRV-6 it was 7.06 µg/mL (≈ 18.5 µM); with HRV-50, 0.091 µg/mL (≈ 0.238 µM); in the assay on HRV-15 it was 1.92 µg/mL (≈ 5.02 µM); with HRV-89 it was 0.28 µg/mL (≈ 0.733 µM). In addition, the EC50 in the assay with HRV-21 is 0.24 µg/mL (≈ 0.628 µM); in the assay with HRV-1A, 1.45 µg/mL (≈ 3.79 µM); in the assay with HRV-1B it was 0.53 µg/mL (≈ 1.39 µM); in the assay on HRV-14, 2.02 µg/mL (≈ 5.28 µM); in the assay with HRV-25, 2.42 µg/mL (≈ 6.33 µM); with Polio 2, 2.24 µg/mL (≈ 5.86 µM). Besides, the EC50 in the assay with HRV-22 came out at 0.45 µg/mL (≈ 1.18 µM); in the assay on HRV-67, 0.64 µg/mL (≈ 1.67 µM); with HRV-86, 1.28 µg/mL (≈ 3.35 µM); with HRV-30, 0.1 µg/mL (≈ 0.262 µM). Moreover, the MIC50 in assay [1] worked out at 0.25 µg/mL (≈ 0.654 µM). Besides, the “MIC₈₀ (N) (Rhinovirus)” value in assay [1] turned out to be 0.91 micrograms per milliliter.

Take `Cc1cc(CCCCCOc2c(Cl)cc(-c3nnc(C)o3)cc2Cl)on1` [Example 11(c), 5-{5-[2,6-dichloro-4-(5-methyl-1,3,4-oxadiazol-2-yl)phenoxy]pentyl}-3-methylisoxazole]: the EC50 in the assay on HRV-2 was found to be 0.016 µg/mL (≈ 0.0404 µM); with HRV-41, 99 µg/mL (≈ 250 µM); in the assay with HRV-6, 0.46 µg/mL (≈ 1.16 µM); in the assay on HRV-50, 0.041 µg/mL (≈ 0.103 µM); with HRV-15, 0.42 µg/mL (≈ 1.06 µM); in the assay on HRV-89, 0.01 µg/mL (≈ 0.0252 µM). In addition, the EC50 came to 0.0092 µg/mL (≈ 0.0232 µM) in the assay with HRV-21; 0.44 µg/mL (≈ 1.11 µM) in the assay with HRV-1A; 0.14 µg/mL (≈ 0.353 µM) with HRV-1B; 0.19 µg/mL (≈ 0.479 µM) in the assay with HRV-14; 0.7 µg/mL (≈ 1.77 µM) in the assay on HRV-25; 0.018 µg/mL (≈ 0.0454 µM) in the assay on HRV-22. Also, the EC50 in the assay with HRV-67 was 0.1 µg/mL (≈ 0.252 µM); in the assay with HRV-86, 0.57 µg/mL (≈ 1.44 µM); in the assay with HRV-30, 0.031 µg/mL (≈ 0.0782 µM). Further, in assay [1], the MIC50 came out at 0.14 µg/mL (≈ 0.353 µM). Besides, the “MIC₈₀ (N) (Rhinovirus)” value in assay [1] is reported as 0.46 (15) micrograms per milliliter.

For `Cc1cc(CCCCCCCOc2ccc(-c3nnc(C)o3)cc2)on1` [Example 13, 3-Methyl-5-{7-[4-(5-methyl-1,3,4-oxadiazol-2-yl)phenoxy]-heptyl}isoxazole], in assay [1], the MIC50 is 2.3 µg/mL (≈ 6.47 µM) and the “MIC₈₀ (N) (Rhinovirus)” value is given as 3.2 (2) micrograms per milliliter.

In the case of `Cc1cc(CCCCCOc2c(C)cc(-c3nnc(C)o3)cc2C)on1` [Example 14, 5-{5-[2,6-Dimethyl-4-(5-methyl-1,3,4-oxadiazol-2-yl)phenoxy]pentyl}-3-methylisoxazole], in assay [1], the MIC50 is 0.34 µg/mL (≈ 0.957 µM) and the “MIC₈₀ (N) (Rhinovirus)” value is reported as 0.67 (2) micrograms per milliliter.
